Data: article PMC3388869, “High-affinity multivalent wheat germ agglutinin ligands by one-pot click reaction” (Beilstein Journal of Organic Chemistry, 2012)
Like-named read-outs stand apart in the source and are kept apart here.

Columns and labels:
[1] = biological target: T1, wheat germ agglutinin (WGA) (Triticum aestivum, UniProt P10969); experiment: enzyme-linked lectin assay (ELLA): inhibition of binding of HRP-labeled WGA to covalently immobilized GlcNAc; design: species or system Triticum vulgaris; settings: for β (relative inhibitory potency): referenced to N,N'-diacetylchitobiose (β = 1); for fold lower IC50 value than GlcNAc: relative to GlcNAc
T1 sequence (P10969 1-171 limits assumed): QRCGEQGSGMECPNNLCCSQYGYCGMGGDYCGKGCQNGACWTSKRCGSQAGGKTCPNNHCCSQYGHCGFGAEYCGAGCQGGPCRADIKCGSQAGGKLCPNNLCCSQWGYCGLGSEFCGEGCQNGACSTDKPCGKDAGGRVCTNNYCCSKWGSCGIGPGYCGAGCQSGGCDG
Protocol: Binding potencies of compounds C1–C6, GlcNAc, and N,N’-diacetylchitobiose were determined by an ELLA employing covalently immobilized GlcNAc as a reference ligand, as described recently. GlcNAc-coated microtiter plates were incubated with mixtures of horseradish-peroxidase-labeled WGA (HRP-WGA) and synthetic WGA ligands in varying concentrations. After incubation, the plates were washed and the remaining HRP-WGA bound to the microtiter plates was quantified by a HRP-catalyzed color reaction. From these curves the concentrations at which the binding of HRP–WGA to GlcNAc is reduced by 50% (IC50 values) were determined as a measure of the potency of the synthesized inhibitors (Table 2). Also shown in Table 2 are the relative inhibitory potencies (β values) referenced to N,N’-diacetylchitobiose (β = 1).

[2] = tested on: WGA; design: method as in PMID 1472499; settings: WGA–ligand interaction; cited from earlier work
[3] = inhibition of binding of HRP-labeled WGA to covalently immobilized GlcNAc, read-out: IC50

IC50 [1, 3] | β (relative inhibitory potency) [1] | relative potency per chitobiose residue ([1]; relative to N,N'-diacetylchitobiose, per chitobiose residue) | SMILES | IC50 ([1]; calculated per contained chitobiose, read-out: IC50 per contained chitobiose) | fold increased inhibition potency over the best divalent ligand C4 ([1]; relative to C4) | fold lower IC50 value than GlcNAc [1] | association constant K [2]
290 µM | 2.1 |  | CC(=O)N[C@H]1[C@H](OCc2cn(Cc3ccccc3)nn2)O[C@H](CO)[C@@H](O[C@@H]2O[C@H](CO)[C@@H](O)[C@H](O)[C@H]2NC(C)=O)[C@@H]1O [C1] |  |  |  | 
1.3 µM | 480 |  | CC(=O)N[C@H]1[C@H](OCc2cn(Cc3cccc(Cn4cc(CO[C@@H]5O[C@H](CO)[C@@H](O[C@@H]6O[C@H](CO)[C@@H](O)[C@H](O)[C@H]6NC(C)=O)[C@H](O)[C@H]5NC(C)=O)nn4)c3)nn2)O[C@H](CO)[C@@H](O[C@@H]2O[C@H](CO)[C@@H](O)[C@H](O)[C@H]2NC(C)=O)[C@@H]1O [C2] |  |  |  | 
1.9 µM | 330 |  | CC(=O)N[C@H]1[C@H](OCc2cn(Cc3ccc(Cn4cc(CO[C@@H]5O[C@H](CO)[C@@H](O[C@@H]6O[C@H](CO)[C@@H](O)[C@H](O)[C@H]6NC(C)=O)[C@H](O)[C@H]5NC(C)=O)nn4)cc3)nn2)O[C@H](CO)[C@@H](O[C@@H]2O[C@H](CO)[C@@H](O)[C@H](O)[C@H]2NC(C)=O)[C@@H]1O [C3] |  |  |  | 
0.6 µM |  | 500 | CC(=O)N[C@H]1[C@H](OCc2cn(CCCOCCCCOCCCn3cc(CO[C@@H]4O[C@H](CO)[C@@H](O[C@@H]5O[C@H](CO)[C@@H](O)[C@H](O)[C@H]5NC(C)=O)[C@H](O)[C@H]4NC(C)=O)nn3)nn2)O[C@H](CO)[C@@H](O[C@@H]2O[C@H](CO)[C@@H](O)[C@H](O)[C@H]2NC(C)=O)[C@@H]1O [C4] |  |  |  | 
0.72 µM |  |  | CC(=O)N[C@H]1[C@H](OCc2cn(CCCOCCOCCOCCCn3cc(CO[C@@H]4O[C@H](CO)[C@@H](O[C@@H]5O[C@H](CO)[C@@H](O)[C@H](O)[C@H]5NC(C)=O)[C@H](O)[C@H]4NC(C)=O)nn3)nn2)O[C@H](CO)[C@@H](O[C@@H]2O[C@H](CO)[C@@H](O)[C@H](O)[C@H]2NC(C)=O)[C@@H]1O [C5] |  |  |  | 
51000 µM | 1/82 |  | CC(=O)N[C@@H]1[C@@H](O)[C@H](O)[C@@H](CO)O[C@H]1O [GlcNAc, N-acetylglucosamine, reference compound] |  |  |  | 2 × 10^2 to 1.3 × 10^3 M^–1
620 µM | 1 |  | CC(=O)N[C@H]1[C@H](O[C@H]2[C@H](O)[C@@H](NC(C)=O)C(O)O[C@@H]2CO)O[C@H](CO)[C@@H](O)[C@@H]1O (stereo partly drawn) [N,N'-diacetylchitobiose, reference compound] |  |  | 82 | 5 × 10^3 to 2 × 10^4 M^–1

SMILES | IC50 [1, 3] | β (relative inhibitory potency) [1] | relative potency per chitobiose residue ([1]; relative to N,N'-diacetylchitobiose, per chitobiose residue) | IC50 ([1]; calculated per contained chitobiose, read-out: IC50 per contained chitobiose) | fold increased inhibition potency over the best divalent ligand C4 ([1]; relative to C4) | fold lower IC50 value than GlcNAc [1] | association constant K [2]
CC(=O)N[C@H]1[C@H](OCc2cn(CCN(CCn3cc(CO[C@@H]4O[C@H](CO)[C@@H](O[C@@H]5O[C@H](CO)[C@@H](O)[C@H](O)[C@H]5NC(C)=O)[C@H](O)[C@H]4NC(C)=O)nn3)CCn3cc(CO[C@@H]4O[C@H](CO)[C@@H](O[C@@H]5O[C@H](CO)[C@@H](O)[C@H](O)[C@H]5NC(C)=O)[C@H](O)[C@H]4NC(C)=O)nn3)nn2)O[C@H](CO)[C@@H](O[C@@H]2O[C@H](CO)[C@@H](O)[C@H](O)[C@H]2NC(C)=O)[C@@H]1O [C6] | 0.22 µM | 2800 |  | 0.66 µM | 2.8 | 230000 | 
